# Experimental data as given in patent US10647680B2, “Urea compound, preparation method therefor and medical use thereof” (Ancureall Pharmaceutical (Shanghai) Co., Ltd., priority 2016, dated 2020).
# Biological target: T1, CYP2B6 (Homo sapiens, UniProt P20813)
# T1 construct: human liver microsomes (BD Gentest) (0.5 mg/mL); tissue BD Gentest; host or cells: human liver microsomes
# T1 sequence (P20813 1-491): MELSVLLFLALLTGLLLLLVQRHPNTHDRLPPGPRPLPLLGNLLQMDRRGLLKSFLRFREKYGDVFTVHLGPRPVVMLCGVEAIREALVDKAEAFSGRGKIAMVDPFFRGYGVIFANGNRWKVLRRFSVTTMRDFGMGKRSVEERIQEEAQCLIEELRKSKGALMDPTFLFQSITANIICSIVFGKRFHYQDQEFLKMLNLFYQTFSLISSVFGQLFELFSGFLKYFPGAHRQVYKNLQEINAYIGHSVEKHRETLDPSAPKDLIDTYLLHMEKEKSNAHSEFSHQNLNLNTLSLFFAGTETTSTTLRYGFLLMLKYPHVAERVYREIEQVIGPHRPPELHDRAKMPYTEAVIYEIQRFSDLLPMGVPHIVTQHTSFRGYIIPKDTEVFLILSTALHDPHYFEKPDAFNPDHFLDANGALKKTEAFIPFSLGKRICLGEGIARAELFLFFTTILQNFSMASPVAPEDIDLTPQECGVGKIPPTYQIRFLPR
# Assay: P450 enzyme inhibition, CYP2B6
# Assay type: in vitro ADME
# Settings: human liver microsomes
# Method: Eight cytochrome p450 enzyme inhibition reactions of human liver microsomes were performed using compound 77 of the present invention as a representative example.
# The main reaction systems and processes: in 37° C. water bath, the test compounds (7 concentrations, 0, 0.25, 0.5, 5, 10, 25, and 50 uM; the final methanol concentration was 1% in the system), human liver microsomes (BD Gentest) (0.5 mg/mL) and reducing coenzyme II (Roche 10621706001) (1 mg/mL) and the corresponding cytochrome p450 enzyme probe substrate were co-incubated for 5 to 20 minutes. Among them, (1) the probe substrate for CYP1A2 was Phenacetin ([…]) (Sigma), and the selective inhibitor alpha-naphthoflavone (2 uM) (Sigma) was for parallel detection as positive control, and they were incubated for 20 minutes. (2) The probe substrate for CYP2b6 was Bupropion (40 uM) (Sigma) and the selective inhibitor Ticlopidine (10 uM) (Sigma) was for parallel detection as positive control, and they were incubated for 20 minutes. (3) The probe substrate of CYP2C8 was Amodiaquine (1 uM) (Sigma), and the selective inhibitor Montelukast (10 uM) (Sigma) was for parallel detection as positive control, and they were incubated for 20 minutes. (4) The probe substrate for CYP2C9 was Diclofenac (2.5 uM) (Sigma), and the selective inhibitor Sulphaphenazole (10 uM) (Sigma) was for parallel detection as positive control, and they were incubated for 20 minutes. (5) The probe substrate for CYP2C19 was Mephenytoin (40 uM) (Sigma), and the selective inhibitor Ticlopidine (10 uM) (Sigma) was for parallel detection as positive control, and they were incubated for 20 minutes. (6) The probe substrate for CYP2D6 was Dextromethorphan (5 uM) (Sigma), and the selective inhibitor Quinidine (10 uM) (Sigma) was for parallel detection as positive control, and they were incubated for 20 minutes. (7) The probe substrates for CYP3A4-T and CYP3A4-M were Testosterone (5 uM) (Sigma) and Midazolam (5 uM) (Sigma), respectively, and the selective inhibitor was Ketoconazole (1 uM) (Sigma), they were detected in parallel as positive control, and incubated for 5 minutes. The reaction system was quenched by adding methanol containing the corresponding internal standard. The internal standard compound was Tolbutamide (Sigma). The concentration of the corresponding metabolites was determined by LC/MS/MS. For the data analysis, the decrease in peak area of the metabolite of the sample after addition of compound 77 relative to the peak area of the metabolite of the solvent control sample was used to calculate the IC50 (concentration of the test substance at 50% inhibition). The percentages of peak areas of metabolites of CYP1A2, CYP2B6, CYP2C8, CYP2C9, 15CYP2C19, CYP2D6, CYP3A4-T, and CYP3A4-M probe substrates after addition of different concentrations of compound 77 and selective inhibitors relative to the solvent control peak areas were shown in the Table 7.
smiles,measurement,setting,value
"COCCOc1ccc2c(c1)ncn2-c1ccc(NC(=O)Nc2cc(C(C)(C)C)n[nH]2)cc1 [Compound 77, 1-(5-tert-butyl-2H-pyrazol-3-yl)-3-{4-[5-(2-methoxyl-ethoxyl)-benzimidazol-1-yl]-phenyl}-urea]",CYP2B6 Remaining %,Concentration 0.25 uM,106.1%
same,CYP2B6 Remaining %,Concentration 0.5 uM,109.6%
same,CYP2B6 Remaining %,Concentration 5 uM,100.4%
same,CYP2B6 Remaining %,Concentration 10 uM,90.1%
same,CYP2B6 Remaining %,Concentration 25 uM,64.6%
same,CYP2B6 Remaining %,Concentration 50 uM,40.1%
same,IC50,read-out: half-inhibitory concentration (IC50) of CYP2B6,39 µM
